Where two headings read alike, the source gives them in different places. Starred links: 1 amine or outer side, 2 acyl side, 3 side chain; linkers in the order of their positions; H or OH if unused. Non-standard residues stand in square brackets, D forms with d. Residues, ends and D or L forms follow the SMILES beside them. Groups on a side chain read outwards from the residue. No end group written: not given here. *: point of attachment. C18 diacid = O=C(O)CCCCCCCCCCCCCCCCC(=O)*; αMePhe(2-F) = C[C@](N)(Cc1ccccc1F)C(=O)O; γGlu = O=C(O)[C@H](CCC(=O)[*:2])N[*:1]; NMeY = CN[C@@H](Cc1ccc(O)cc1)C(=O)O; αMe4Pal = C[C@](N)(Cc1ccncc1)C(=O)O; αMeY = C[C@](N)(Cc1ccc(O)cc1)C(=O)O; αMeF = C[C@](N)(Cc1ccccc1)C(=O)O; 4Pal = N[C@@H](Cc1ccncc1)C(=O)O; αMeL = CC(C)C[C@](C)(N)C(=O)O; αMeS = C[C@](N)(CO)C(=O)O; Orn = NCCC[C@H](N)C(=O)O; AEEA = NCCOCCOCC(=O)O; Aib = CC(C)(N)C(=O)O
How the values were obtained:
Type in all cases: cell-based
[1] = target: T1, hGLP-1R (Homo sapiens, UniProt P43220); experiment: Functional cAMP activation in the presence of 0.1% casein (no HSA); conditions: read-out: Relative cAMP EC50, hGLP-1R;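 further: intracellular cAMP rise after 30 min at 37 °C read by HTRF, normalized between buffer only (0%) and maximal control ligand (100%), four-parameter variable-slope fit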
T1 sequence (P43220 24-463): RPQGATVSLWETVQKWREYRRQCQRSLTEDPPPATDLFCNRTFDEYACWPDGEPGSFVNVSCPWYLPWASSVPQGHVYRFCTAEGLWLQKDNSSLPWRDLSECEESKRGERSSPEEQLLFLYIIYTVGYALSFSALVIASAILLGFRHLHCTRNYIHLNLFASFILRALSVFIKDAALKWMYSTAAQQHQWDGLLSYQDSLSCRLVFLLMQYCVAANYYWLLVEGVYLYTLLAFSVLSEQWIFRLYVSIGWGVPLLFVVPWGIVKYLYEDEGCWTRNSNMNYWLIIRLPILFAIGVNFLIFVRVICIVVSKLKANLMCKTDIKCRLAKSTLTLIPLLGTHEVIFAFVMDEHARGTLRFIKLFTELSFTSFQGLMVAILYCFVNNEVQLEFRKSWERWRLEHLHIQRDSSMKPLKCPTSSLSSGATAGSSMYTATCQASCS

[2] = target: T2, hGIPR (Homo sapiens, UniProt P48546); experiment: as above; conditions: read-out: Relative cAMP EC50, hGIPR;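 further: intracellular cAMP rise after 30 min at 37 °C read by HTRF against a standard curve, scaled between buffer alone (0%) and top control ligand concentration (100%), four-parameter fit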
T2 sequence (P48546 22-466): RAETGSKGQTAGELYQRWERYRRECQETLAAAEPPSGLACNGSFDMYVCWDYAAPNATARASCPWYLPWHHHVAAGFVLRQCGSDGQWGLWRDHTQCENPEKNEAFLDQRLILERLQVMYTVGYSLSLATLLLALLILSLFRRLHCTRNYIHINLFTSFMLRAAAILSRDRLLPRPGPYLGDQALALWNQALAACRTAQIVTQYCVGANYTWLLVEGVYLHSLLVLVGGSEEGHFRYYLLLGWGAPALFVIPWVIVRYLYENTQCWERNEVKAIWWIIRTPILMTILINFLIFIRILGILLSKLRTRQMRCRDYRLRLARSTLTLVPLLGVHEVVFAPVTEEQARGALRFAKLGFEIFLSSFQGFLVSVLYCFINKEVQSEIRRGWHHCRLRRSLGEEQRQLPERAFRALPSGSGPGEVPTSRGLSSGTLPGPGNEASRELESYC

[3] = target: T1, hGLP-1R; experiment: Functional cAMP activity in the presence of 1% HSA; conditions: read-out: cAMP Rel EC50, hGLP-1R
[4] = target: T2, hGIPR; experiment: Functional cAMP activity in the presence of 1% HSA; conditions: read-out: cAMP Rel EC50, hGIPR
[5] = target: hGcgR (Homo sapiens, UniProt P47871); experiment: Functional cAMP activation in the presence of 0.1% casein (no HSA); conditions: read-out: Relative cAMP EC50, hGcgR;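 further: intracellular cAMP rise after 30 min at 37 °C, read by HTRF against a cAMP standard curve, scaled from buffer only (0%) to maximal control ligand response (100%)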
Chain of hGcgR (P47871 26-477): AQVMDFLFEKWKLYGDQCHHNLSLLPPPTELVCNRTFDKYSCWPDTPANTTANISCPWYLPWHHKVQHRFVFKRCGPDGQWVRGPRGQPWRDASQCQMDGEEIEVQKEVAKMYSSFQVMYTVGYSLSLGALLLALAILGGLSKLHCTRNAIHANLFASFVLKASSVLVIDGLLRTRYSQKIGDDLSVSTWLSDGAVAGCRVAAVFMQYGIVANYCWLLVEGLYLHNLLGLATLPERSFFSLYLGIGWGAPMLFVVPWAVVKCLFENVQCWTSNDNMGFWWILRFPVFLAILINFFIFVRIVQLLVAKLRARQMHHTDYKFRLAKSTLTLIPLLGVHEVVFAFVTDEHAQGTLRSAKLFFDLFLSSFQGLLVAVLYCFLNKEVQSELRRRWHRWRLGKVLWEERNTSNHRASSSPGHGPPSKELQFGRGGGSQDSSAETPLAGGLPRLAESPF

[6] = target: human GcgR (Homo sapiens, UniProt P47871); experiment: Functional cAMP activity in the presence of 1% HSA; conditions: read-out: cAMP Rel EC50, hGcgR
Chain of human GcgR (P47871 26-477): as above

[7] = in the presence of 0.1% casein (no HSA), geometric mean

Compound | EC50 [1] [nM] | EC50 [2] [nM] | EC50 [3] [nM] | EC50 [4] [nM] | EC50 [5] [nM] | EC50 [6] [nM] | EC50 [1, 7] [nM] | EC50 [2, 7] [nM] | EC50 [5, 7] [nM]
Y[Aib]QGT[αMePhe(2-F)]TSD[4Pal][αMeS]I[αMeL]LD[Orn]K([AEEA-γGlu-C18 diacid])AA[Aib]EFI[dE][αMeY]LIEGGPSSGAPPPSGE-NH2 [Example 701] | 0.22 | 0.01 | 24.9 | 0.979 | 1.48 | 226 | – | – | –
H-Y[Aib]QGT[αMePhe(2-F)]TSD[4Pal][αMeS]I[αMeL]LD[Orn]K([AEEA-γGlu-C18 diacid])AQ[αMe4Pal]EFI[dE][αMeY]LVEGGPSSGEPPPSGSE-NH2 [Example 752] | 0.274 | 0.00689 | 44 | 1.74 | 1.9 | 228 | – | – | –
CC[C@H](C)[C@H](NC(=O)[C@H](Cc1ccccc1)NC(=O)[C@H](C)NC(=O)C(C)(C)NC(=O)[C@H](CCC(N)=O)NC(=O)[C@H](C)NC(=O)[C@H](CCCCNC(=O)COCCOCCNC(=O)CC[C@H](NC(=O)CCCCCCCCCCCCCCCCC(=O)O)C(=O)O)NC(=O)[C@H](CCCCN)NC(=O)[C@H](CC(=O)O)NC(=O)[C@H](CC(C)C)NC(=O)[C@H](CC(C)C)NC(=O)[C@@H](NC(=O)[C@H](CO)NC(=O)[C@H](Cc1ccc(O)cc1)NC(=O)[C@H](CC(=O)O)NC(=O)[C@H](CO)NC(=O)[C@@H](NC(=O)[C@](C)(Cc1ccccc1)NC(=O)[C@@H](NC(=O)CNC(=O)[C@H](CCC(N)=O)NC(=O)C(C)(C)NC(=O)[C@@H](N)Cc1ccc(O)cc1)[C@@H](C)O)[C@@H](C)O)[C@@H](C)CC)C(=O)N[C@@H](CCC(=O)O)C(=O)N[C@@H](Cc1ccc(O)cc1)C(=O)N[C@@H](CC(C)C)C(=O)N[C@@H](CCC(=O)O)C(=O)N[C@@H](CCC(=O)O)C(=O)NCC(=O)NCC(=O)N1CCC[C@H]1C(=O)N[C@@H](CO)C(=O)N[C@@H](CO)C(=O)NCC(=O)N[C@@H](C)C(=O)N1CCC[C@H]1C(=O)N1CCC[C@H]1C(=O)N1CCC[C@H]1C(=O)N[C@@H](CO)C(N)=O [Example 392] (H-Y[Aib]QGT[αMeF]TSDYSILLDKK([AEEA-γGlu-C18 diacid])AQ[Aib]AFIEYLEEGGPSSGAPPPS-NH2) | 0.253 | 0.0571 | 41.5 | 28.7 | 3.02 | 611 | – | – | –
CC[C@H](C)[C@H](NC(=O)[C@H](Cc1ccccc1)NC(=O)[C@H](C)NC(=O)C(C)(C)NC(=O)[C@H](CCC(N)=O)NC(=O)[C@H](C)NC(=O)[C@H](CCCCNC(=O)COCCOCCNC(=O)CC[C@H](NC(=O)CCCCCCCCCCCCCCCCC(=O)O)C(=O)O)NC(=O)[C@H](CCCCN)NC(=O)[C@H](CC(=O)O)NC(=O)[C@H](CC(C)C)NC(=O)[C@H](CC(C)C)NC(=O)[C@@H](NC(=O)[C@H](CO)NC(=O)[C@H](Cc1ccc(O)cc1)NC(=O)[C@H](CC(=O)O)NC(=O)[C@H](CO)NC(=O)[C@@H](NC(=O)[C@](C)(Cc1ccccc1F)NC(=O)[C@@H](NC(=O)CNC(=O)[C@H](CCC(N)=O)NC(=O)C(C)(C)NC(=O)[C@@H](N)Cc1c[nH]cn1)[C@@H](C)O)[C@@H](C)O)[C@@H](C)CC)C(=O)N[C@@H](CCC(=O)O)C(=O)N[C@@H](Cc1ccc(O)cc1)C(=O)N[C@@H](CC(C)C)C(=O)N[C@@H](CCC(=O)O)C(=O)N[C@@H](CCC(=O)O)C(=O)NCC(=O)NCC(=O)N1CCC[C@H]1C(=O)N[C@@H](CO)C(=O)N[C@@H](CO)C(=O)NCC(=O)N[C@@H](C)C(=O)N1CCC[C@H]1C(=O)N1CCC[C@H]1C(=O)N1CCC[C@H]1C(=O)N[C@@H](CO)C(N)=O [Example 425] (H-H[Aib]QGT[αMePhe(2-F)]TSDYSILLDKK([AEEA-γGlu-C18 diacid])AQ[Aib]AFIEYLEEGGPSSGAPPPS-NH2; N-terminus assumed) | 0.15 | 0.0997 | 20.3 | 46.9 | 5.49 | 1150 | – | – | –
H-Y[Aib]QGTFTSD[4Pal]SQ[αMeL]LDKK([AEEA-γGlu-C18 diacid])AQ[αMe4Pal]AFIEYLIE[Aib]GPSSGAPPPSGT-NH2 [Example 834] | – | – | 208 | 15.7 | – | 533 | 2.64 | 0.094 | 3.36
CC[C@H](C)[C@H](NC(=O)[C@H](CC(C)C)NC(=O)[C@H](Cc1ccc(O)cc1)NC(=O)[C@H](CCC(=O)O)NC(=O)[C@@H](NC(=O)[C@H](Cc1ccccc1)NC(=O)[C@H](CCCN)NC(=O)C(C)(C)NC(=O)[C@H](CCC(N)=O)NC(=O)[C@H](C)NC(=O)[C@H](CCCCNC(=O)COCCOCCNC(=O)CC[C@H](NC(=O)CCCCCCCCCCCCCCCCC(=O)O)C(=O)O)NC(=O)[C@H](CCCN)NC(=O)[C@H](CC(=O)O)NC(=O)[C@H](CC(C)C)NC(=O)[C@](C)(CC(C)C)NC(=O)[C@@H](NC(=O)[C@](C)(CO)NC(=O)[C@H](Cc1ccncc1)NC(=O)[C@H](CC(=O)O)NC(=O)[C@H](CO)NC(=O)[C@@H](NC(=O)[C@](C)(Cc1ccccc1F)NC(=O)[C@@H](NC(=O)CNC(=O)[C@H](CCC(N)=O)NC(=O)C(C)(C)NC(=O)[C@@H](N)Cc1ccc(O)cc1)[C@@H](C)O)[C@@H](C)O)[C@@H](C)CC)[C@@H](C)CC)C(=O)N[C@@H](CCC(=O)O)C(=O)NCC(=O)NCC(=O)N1CCC[C@H]1C(=O)N[C@@H](CO)C(=O)N[C@@H](CO)C(=O)NCC(=O)N[C@@H](CCC(=O)O)C(=O)N1CCC[C@H]1C(=O)N1CCC[C@H]1C(=O)N1CCC[C@H]1C(=O)N[C@@H](CCC(=O)O)C(N)=O [Example 459] (H-Y[Aib]QGT[αMePhe(2-F)]TSD[4Pal][αMeS]I[αMeL]LD[Orn]K([AEEA-γGlu-C18 diacid])AQ[Aib][Orn]FIEYLIEGGPSSGEPPPE-NH2) | 0.179 | 0.0122 | 12.6 | 2.06 | 1.21 | 73.6 | – | – | –
Y[Aib]QGTFTSD[4Pal]SQ[αMeL]LDKK([dE-dE-γGlu-C18 diacid])AQ[αMe4Pal]AFIEYLIE[Aib]GPSSGAPPPSGSE-NH2 [Example 925] | – | – | 708 | 23 | – | 2500 | 4.19 | 0.147 | 8.19
H-[NMeY][Aib]QGTFTSD[4Pal][αMeS]Q[αMeL]LD[Orn]K([dE-γGlu-C18 diacid])AQ[αMe4Pal]QFIQ[αMeY]LIE[Aib]GPSSGAPPPSGGGE-NH2 [Example 1134] | – | – | 78.9 | 2.41 | – | 180 | 0.957 | 0.0391 | 2.57

From patent publication US20240270821A1, “GIP/GLP1/GCG TRI-RECEPTOR AGONISTS AND USES THEREOF” (priority 2023, published 2024)
